Results taken from patent US20130202594A1, “ALK1 Antagonists and Their Uses in Treating Renal Cell Carcinoma” (priority 2012, published 2013).

Tested on: 786-0 cells
Assay: 786-0 human RCC tumor xenograft model
Type: in vivo, mouse
Conditions: sunitinib 53.6 mg/kg gavage 6 of 7 days; ALK1-Fc 10 mg/kg IP 3 times per week
Experimental: 786-0 cells, a von Hippel Lindau (VHL)-deficient human renal cell carcinoma (RCC) cell line (see Iliopoulos et al., Nature Medicine 1995; 1:822-6), was obtained from the American Type Culture Collection, and cultured in RPMI 1640 medium (Cellgro). Media was supplemented with 2 mmol/L L-glutamine, 10% FCS, and 1% streptomycin (50 μg/mL), and cells were cultured at 37° C. with 5% CO2. 786-0 cells were harvested from subconfluent cultures by a brief exposure to 0.25% trypsin and 0.02% EDTA. Trypsinization was stopped with medium containing 10% fetal bovine serum and the cells were washed once in serum-free medium and resuspended in PBS. Only suspensions consisting of single cells with >90% viability were used for the injections.
To establish human RCC xenografts, 786-0 tumor cells were injected subcutaneously (1×10^7 cells) into the flanks of 6- to 8-week-old female athymic nude/beige mice (Charles River Laboratories) that were of 20 g average body weight. Tumors developed in >80% of the mice and were usually visible within a few days of implantation. Mice were treated with vehicle plus Fc, sunitinib plus Fc, vehicle plus ALK-Fc, or sunitinib plus ALK-Fc when the tumors had grown to a diameter of 12 mm. Sunitinib (53.6 mg/kg; Pfizer) was administered 6 of 7 days per week by gavage beginning. […] Tumors were measured every two days while mice were on treatment.

“hALK1-Fc: extracellular domain of human ALK1 (amino acids 22-120) fused to a human IgG1 Fc with a minimal linker (SEQ ID NO:3/14)” was tested, and the tumor growth was “trended toward inhibiting tumor growth as a single agent”.
